Measured values as given in US6673565B2 (priority 1999, dated 2004).

Tests used:
[1] = target: Butyrylcholinesterase (Homo sapiens, UniProt P06276); format: biochemical
[2] = target: Urease (Canavalia ensiformis, UniProt P07374); format: biochemical
Chain of Urease (P07374 whole entry, looked up): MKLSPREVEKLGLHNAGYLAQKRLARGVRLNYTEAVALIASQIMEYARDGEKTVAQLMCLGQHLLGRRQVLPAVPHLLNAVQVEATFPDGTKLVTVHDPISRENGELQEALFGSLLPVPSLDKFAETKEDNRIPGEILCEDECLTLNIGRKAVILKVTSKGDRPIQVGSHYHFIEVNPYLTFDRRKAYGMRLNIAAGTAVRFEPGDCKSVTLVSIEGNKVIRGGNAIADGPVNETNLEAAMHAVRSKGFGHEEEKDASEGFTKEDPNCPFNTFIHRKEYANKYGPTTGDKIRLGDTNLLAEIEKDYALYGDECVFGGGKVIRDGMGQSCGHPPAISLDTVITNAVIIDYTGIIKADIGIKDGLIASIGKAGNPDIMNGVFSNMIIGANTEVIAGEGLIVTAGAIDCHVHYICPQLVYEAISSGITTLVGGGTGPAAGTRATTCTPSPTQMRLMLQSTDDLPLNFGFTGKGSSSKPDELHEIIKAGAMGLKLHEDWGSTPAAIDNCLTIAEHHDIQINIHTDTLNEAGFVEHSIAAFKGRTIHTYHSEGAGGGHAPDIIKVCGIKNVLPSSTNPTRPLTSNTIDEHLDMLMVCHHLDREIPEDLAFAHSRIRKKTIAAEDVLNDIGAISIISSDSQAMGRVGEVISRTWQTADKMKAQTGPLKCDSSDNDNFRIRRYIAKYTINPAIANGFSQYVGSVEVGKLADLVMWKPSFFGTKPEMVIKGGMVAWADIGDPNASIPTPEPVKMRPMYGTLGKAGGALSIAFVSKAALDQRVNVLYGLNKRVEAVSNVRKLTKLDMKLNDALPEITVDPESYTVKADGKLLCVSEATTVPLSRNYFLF

Chain of Butyrylcholinesterase (P06276 29-602): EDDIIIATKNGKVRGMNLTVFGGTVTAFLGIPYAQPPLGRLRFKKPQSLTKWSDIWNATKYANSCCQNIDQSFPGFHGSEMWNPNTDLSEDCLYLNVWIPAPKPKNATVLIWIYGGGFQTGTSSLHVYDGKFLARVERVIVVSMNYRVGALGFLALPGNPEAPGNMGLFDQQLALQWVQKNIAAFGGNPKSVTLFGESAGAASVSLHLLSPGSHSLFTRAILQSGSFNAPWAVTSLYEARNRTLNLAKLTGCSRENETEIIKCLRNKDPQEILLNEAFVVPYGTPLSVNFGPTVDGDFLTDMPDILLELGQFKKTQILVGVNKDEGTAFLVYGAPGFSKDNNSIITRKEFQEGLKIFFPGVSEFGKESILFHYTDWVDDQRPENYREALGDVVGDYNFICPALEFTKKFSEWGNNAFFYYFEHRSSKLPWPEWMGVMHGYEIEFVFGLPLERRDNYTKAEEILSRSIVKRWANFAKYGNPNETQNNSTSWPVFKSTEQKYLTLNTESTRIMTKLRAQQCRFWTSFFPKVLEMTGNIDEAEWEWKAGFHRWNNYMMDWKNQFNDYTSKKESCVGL

| SMILES | Inhibition of BChE polymer used to wipe paraoxon-containing beakers [1] | Color change of urease/m-cresol purple polymer disks [2] |
| --- | --- | --- |
| CCOP(=O)(OCC)Oc1ccc([N+](=O)[O-])cc1 [paraoxon, Paraoxon] | complete inhibition |  |
| NC(N)=O [urea] |  | transition from yellow to blue |
